Measurements published in PubChem BioAssay (NCI).
“And” between values parts separate entries of the source, which are not always exact repeats. Equal entries are not always repeated.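 Five concentrations, 48 hours, 96-well plates. GI50 = concentration required for 50% inhibition of growth. TGI denotes the concentration required for complete inhibition of growth.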

Tests used:
Assay in all cases: inhibition of tumour cell growth, NCI panel, 48 h
[1] = test system: OVCAR-4 ovarian
[2] = test system: T-47D breast
[3] = test system: SK-OV-3 ovarian
[4] = test system: MDA-N
[5] = test system: HOP-62 NSCLC
[6] = test system: SR leukemia
[7] = test system: A549 NSCLC
[8] = test system: ACHN renal
[9] = test system: U251 CNS
[10] = test system: EKVX NSCLC

| SMILES | TGI [1] | TGI [2] | TGI [3] | TGI [4] | TGI [5] | TGI [6] | TGI [7] | TGI [8] | TGI [9] | TGI [10] | GI50 [1] | GI50 [2] | GI50 [3] | GI50 [5] | GI50 [6] | GI50 [7] | GI50 [8] | GI50 [9] | GI50 [10] |
| --- | --- | --- | --- | --- | --- | --- | --- | --- | --- | --- | --- | --- | --- | --- | --- | --- | --- | --- | --- |
| Cc1ccc([N+](=O)[O-])c2c(NCC(O)CO)ccnc12 (stereo not given) | > 100 µM | > 100 µM | > 100 µM | > 100 µM | > 100 µM | > 100 µM | > 100 µM | > 100 µM | > 100 µM | > 100 µM | – | – | – | – | – | – | – | – | – |
| COc1cc(Br)c(CC2C3=C(CCN2C(=O)C2CCC2)CC(=O)CC3)cc1O (stereo not given) | – | 71.8 µM | > 100 µM | 45 µM | > 100 µM | > 100 µM | > 100 µM | 86.9 µM | > 100 µM | > 100 µM | – | – | – | – | – | – | – | – | – |
| CN(C)/N=N/c1nc[nH]c1C(N)=O | > 1000 µM | > 464 µM | 88.7 µM and 328 µM | > 1000 µM | – | > 1000 µM | – | > 1000 µM | > 1000 µM | > 169 µM | 40.1 µM | 77.3 µM | 14.2 µM | 43.8 µM | 64.4 µM | > 147 µM | 32.5 µM and 76.6 µM | 71.5 µM | 94.1 µM and > 134 µM |
| Cn1c(O)c(C=Nc2ccccc2Cl)c(=O)n(C)c1=O | 98.6 µM | 65.5 µM | > 100 µM | > 100 µM | 52.4 µM | 55.9 µM | > 100 µM | 92.2 µM | > 100 µM | > 100 µM | – | – | – | – | – | – | – | – | – |
| C=CCC(C(=O)Nc1cccc2[nH]cnc12)C(=O)OCC (stereo not given) | > 100 µM | > 100 µM | > 100 µM | > 100 µM | > 100 µM | > 100 µM | > 100 µM | > 100 µM | > 100 µM | > 100 µM | – | – | – | – | – | – | – | – | – |
| C=C1CN(C2=NCCO2)C1 | > 100 µM | > 100 µM | – | > 100 µM | > 100 µM | > 100 µM | > 100 µM | > 100 µM | – | > 100 µM | – | – | – | – | – | – | – | – | – |
| CCOC(=O)/C=C(\C(=O)OCC)n1ccc(=O)[nH]c1=O | > 52.3 µM | 33.1 µM | > 76.1 µM | 51.3 µM | 53.6 µM | 29.7 µM | > 84.5 µM | 23.6 µM | 32.6 µM | 34.9 µM | – | – | – | – | – | – | – | – | – |
| COc1ccc(N2NC(c3ccccc3)(c3ccccc3)C(C)C2=O)cc1 (stereo not given) | > 100 µM | > 100 µM | – | > 100 µM | > 100 µM | > 100 µM | > 100 µM | > 100 µM | > 100 µM | > 100 µM | – | – | – | – | – | – | – | – | – |
| O=c1ccc2ccc(O)cc2o1 | > 100 µM | > 100 µM | > 100 µM | > 100 µM | > 100 µM | – | > 100 µM | > 100 µM | > 100 µM | > 100 µM | – | – | – | – | – | – | – | – | – |
| O=C1CC2CCC(C1)S2=O (stereo not given) | > 100 µM | > 100 µM | > 100 µM | > 100 µM | > 100 µM | > 100 µM | > 100 µM | – | > 100 µM | > 100 µM | – | – | – | – | – | – | – | – | – |
| Cc1ccc(-n2cc([Si](C)(C)C)nn2)s1 | > 100 µM | > 100 µM | > 100 µM | > 100 µM | – | – | > 100 µM | > 100 µM | > 100 µM | – | – | – | – | – | – | – | – | – | – |
| NCCCNCCCCN1CC1 | 1.53 µM | 1.02 µM | – | > 100 µM | 14.1 µM | – | > 44.5 µM | – | > 26.2 µM | 16.7 µM | – | – | – | – | – | – | – | – | – |
| CCC[C@@H]1C(=O)N=C(N)N1C(=O)OCc1ccccc1 | > 100 µM | – | – | > 100 µM | > 100 µM | > 100 µM | – | > 100 µM | > 100 µM | > 100 µM | – | – | – | – | – | – | – | – | – |
| C=C(c1ccccc1)c1ccccc1-c1cc(-c2ccccc2)cc(-c2ccccc2)n1 | – | 61.3 µM | – | > 100 µM | > 100 µM | > 100 µM | > 100 µM | > 100 µM | > 100 µM | > 100 µM | – | – | – | – | – | – | – | – | – |
| CCN1CCC(O)(/C=C/c2ccc(OC)cc2)C(C(=O)/C=C/c2ccc(OC)cc2)C1 (stereo not given) | 26.7 µM | 24.1 µM | 22.5 µM | – | 33.4 µM | 26.4 µM | 34 µM | 26.6 µM | 19.7 µM | 26.4 µM | – | – | – | – | – | – | – | – | – |
| C[N+](C)(CCNC(=O)c1cccc2cc3ccccc3nc12)Cc1ccc([N+](=O)[O-])s1 | – | > 25 µM | > 25 µM | > 25 µM | > 25 µM | – | > 25 µM | > 25 µM | > 25 µM | > 25 µM | – | – | – | – | – | – | – | – | – |
| COc1cc(CS(=O)c2ccc(O)cc2)cc(OC)c1OC (stereo not given) | – | > 100 µM | > 100 µM | > 100 µM | > 100 µM | > 100 µM | > 100 µM | > 100 µM | > 100 µM | > 100 µM | – | – | – | – | – | – | – | – | – |
| CCOC(=O)c1c(-c2cccc3ccccc23)c(C#N)c(=S)n(C2OC(COC(C)=O)C(OC(C)=O)C(OC(C)=O)C2OC(C)=O)c1C (stereo not given) | > 100 µM | > 100 µM | > 100 µM | > 100 µM | > 100 µM | > 100 µM | > 100 µM | > 100 µM | > 100 µM | – | – | – | – | – | – | – | – | – | – |
| COc1ccc(C2=NN=C3C(c4ccccc4)=Nc4ccccc4N3C2)cc1 | 45.6 µM | – | > 100 µM | > 100 µM | > 100 µM | 49.5 µM | > 100 µM | > 100 µM | > 100 µM | > 100 µM | – | – | – | – | – | – | – | – | – |
| CCOC(=O)[C@@H]1ON2OC(OC3CCCC3(c3ccccc3)c3ccccc3)C(OC(C)=O)[C@H]3OC(=O)[C@@H]1C32 (stereo not given in full) | – | > 100 µM | > 100 µM | > 100 µM | > 100 µM | > 100 µM | > 100 µM | 73.2 µM | > 100 µM | > 100 µM | – | – | – | – | – | – | – | – | – |
| C/C=C(/C)C(=O)O[C@H]1[C@H](O)CC(c2ccc3c(c2O)C(O)=C2C(=O)C4(OC)C(O)=C(C(N)=O)C(=O)[C@H](CC(=O)c5ccccc5O)C4CC2[C@@]3(C)OC)O[C@@H]1C (stereo not given in full) | 17 µM | 8.06 µM | 5.72 µM and 2.05 µM | 2.09 µM | – | 0.355 µM | 4.6 µM and 1.52 µM | 3.96 µM | 0.148 µM and 0.117 µM | 0.518 µM | – | – | – | – | – | – | – | – | – |
| C=C1C(=O)OC2CC3(C)OC3CC/C(C)=C/C(OC(C)=O)C12 (stereo not given) | 16.1 µM | 15.9 µM | 37 µM | 18.7 µM | 33.5 µM | – | 33.7 µM | 23.3 µM | 33.5 µM | 32.7 µM | – | – | – | – | – | – | – | – | – |
| O=[N+]([O-])C(Cl)=C/C(=C(\Cl)SCc1ccccc1)[N+](=O)[O-] | 41.2 µM | 40.2 µM | > 100 µM | 69.8 µM | 36.2 µM | – | 73.5 µM | 32.2 µM | 34.9 µM | 35.2 µM | – | – | – | – | – | – | – | – | – |
